Reference: ChEMBL document CHEMBL3988442, “University of Dundee, Small-Polar-MMV Screening Library” (2021)

target: T1, Coenzyme A biosynthesis bifunctional protein CoaBC (Mycobacterium tuberculosis (strain ATCC 25618 / H37Rv), UniProt P9WNZ1); assay: Biomol Green assay for MtCoaBC inhibitor, OD650 read; format: functional
T1 sequence (P9WNZ1 whole entry): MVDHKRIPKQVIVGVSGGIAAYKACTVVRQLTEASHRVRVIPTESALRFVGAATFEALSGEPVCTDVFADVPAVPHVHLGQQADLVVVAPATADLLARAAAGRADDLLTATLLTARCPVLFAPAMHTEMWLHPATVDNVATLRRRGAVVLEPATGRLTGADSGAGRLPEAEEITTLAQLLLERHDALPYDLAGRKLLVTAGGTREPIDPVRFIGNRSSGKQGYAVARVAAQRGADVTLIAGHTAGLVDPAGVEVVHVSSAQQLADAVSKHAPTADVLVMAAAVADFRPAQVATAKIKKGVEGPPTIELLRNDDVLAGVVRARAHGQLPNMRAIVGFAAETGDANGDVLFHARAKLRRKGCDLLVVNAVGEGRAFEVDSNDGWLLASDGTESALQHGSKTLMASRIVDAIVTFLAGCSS

Compound | IC50
COc1ccccc1CNC(=O)CS(=O)(=O)Cc1ccccc1 | > 30.2 µM
CCn1cc(Cl)c(C(=O)NCCCN(C)C)n1 | > 30.2 µM
Cc1cnc(NC(=O)C(C)Oc2ccc3c(c2)OCO3)s1 (centres undefined) | > 30.2 µM
Cc1cc(C(F)(F)F)nn1CC(C)C(=O)Nc1ccccn1 (centres undefined) | > 30.2 µM
CCCNC(=O)NC(C)c1ccccn1 (centres undefined) | > 30.2 µM
CN1CCN(c2ncc3c(=O)n(Cc4ccco4)ccc3n2)CC1 | > 30.2 µM
CCN1CCCC(O)(CN(C)Cc2ccc(C)o2)C1 (centres undefined) | > 30.2 µM
COc1cccc(CNC(=O)c2cc(C)nc(N3CCCCC3)n2)c1 | > 30.2 µM
CCc1nnc(SCc2nonc2C)n1C1CC1 | > 30.2 µM
O=C1CC(c2ccc(C(=O)O)cc2)c2c(sc3c2CCCC3)N1 (centres undefined) | > 50.1 µM
COc1c(C2SCC(=O)Nc3[nH]ncc32)cc2c(c1OC)OCO2 (centres undefined) | > 30.2 µM
O=C(c1ccnc(C2CCNCC2)c1)N1CCCC(CO)C1 (centres undefined) | > 30.2 µM
COCCC(=O)NCc1ccc(-c2ccccc2C(=O)O)nc1 | > 30.2 µM
Cc1nc(C)c(CC(=O)N2CCC(c3ccn4nccc4n3)CC2)s1 | > 30.2 µM
CN1CCc2nnc(C3CCCN3S(=O)(=O)c3ccc(F)cc3)n2CC1 (centres undefined) | > 30.2 µM
CNC(=O)CCc1cccc(C2CCCN(c3cc(C)ncn3)C2)n1 (centres undefined) | > 30.2 µM
CC(C)C(=O)N1CCCC(Cc2cccnc2)C1 (centres undefined) | > 30.2 µM
Cc1nn(C)cc1S(=O)(=O)N[C@@H]1CCC[C@@H](N2CCCC2)[C@@H]1O | > 30.2 µM
Cc1nc2c(c(=O)[nH]1)CN(Cc1ccc3c(c1)CCCN3C)CC2 | > 30.2 µM
CN1CCCC1c1ccc(N2CCOCC2)cn1 (centres undefined) | > 30.2 µM

Compound | IC50
COc1ccc(C2CN(c3cc(C)ncn3)CCN2C(C)=O)cc1 (centres undefined) | > 30.2 µM
CCn1cc(CN2CCC(c3ncc(Cl)cc3S(C)(=O)=O)CC2)c(C)n1 | > 30.2 µM
CCCn1cc(CN2CCOCC2c2[nH]ncc2C)cn1 (centres undefined) | > 30.2 µM
CN(C)Cc1cccc(-c2cccnc2C(=O)NCc2cn(C)cn2)c1 | > 30.2 µM
COCCN1CCN(Cc2cnc(C3(C)CCCCO3)nc2)CC1 (centres undefined) | > 50.1 µM
CN(C)c1ccc(C(=O)N2CCC(c3cc4cnccc4[nH]3)CC2)cc1 | > 30.2 µM
CC(=O)N1CC(c2ccnc(Nc3nccs3)n2)C1 | > 30.2 µM
COc1cccc([C@@]2(O)CC[C@@H]3CN(C(=O)c4ccn(C)n4)C[C@@H]32)c1 | > 30.2 µM
CCC(=O)NCCc1cc2nc(-c3ccncc3)ccn2n1 | > 30.2 µM
CCC1CCCCN1C(=O)Cn1nc(-c2ccc(C)o2)cc(N)c1=O (centres undefined) | > 50.1 µM
CCC(=O)N1CCCCC1c1nc(O)c2c(n1)CN(S(=O)(=O)CC)CC2 (centres undefined) | > 30.2 µM
CC1CCN(c2nc(O)cc(C3CC(=O)N(C4CCCCC4)C3)n2)CC1 (centres undefined) | > 30.2 µM
CCNC(=O)C1(Cc2cc(-c3ccccc3)no2)CCCN(C)C1 (centres undefined) | > 30.2 µM
CCNC(=O)C1(Cc2cc(-c3ccc(C)cc3)no2)CCCN(C)C1 (centres undefined) | > 30.2 µM
CN(C)c1nccc(C2CCCCN2Cc2cnn3cccnc23)n1 (centres undefined) | > 30.2 µM
CN1C[C@@H](C(=O)N2CCCOCC2)[C@@]2(CCc3ccccc3C(=O)N2)C1 | > 30.2 µM
CC(C(=O)NC1CC1)n1nc(-c2cccs2)cc(N)c1=O (centres undefined) | > 30.2 µM
CC(C)CC(NC(=O)c1cccs1)c1nc2cccnc2n1C (centres undefined) | > 30.2 µM
CC[C@@H](Cn1ncc2ccccc2c1=O)NC(=O)c1ccco1 | > 30.2 µM
CC(C)c1[nH]c2ncccc2c1CN1CCC(O)CC1 | > 30.2 µM

Compound | IC50
Cc1c(CN2CCCC(O)C2)[nH]c2ccc(F)cc12 (centres undefined) | > 30.2 µM
Cc1cnc2[nH]c(C(F)(F)F)c(CN3CCCC(CO)C3)c2c1 (centres undefined) | > 30.2 µM
Fc1ccc(Oc2nccnc2C2CCN(C3CCOCC3)CC2)cc1 | > 30.2 µM
CN1CCC(c2cccc(C(=O)N(C)C)n2)CC1 | > 30.2 µM
Nc1nccnc1CC1CCCN(Cc2c[nH]c3ccccc23)C1 (centres undefined) | > 30.2 µM
CNc1cc(C)nc(C2CCN(CCO)CC2)n1 | > 30.2 µM
O=C(C1CCOC1)N1Cc2ccccc2OC2(CCOCC2)C1 (centres undefined) | > 30.2 µM
Cc1ccc(CNCCN2CCOCC2)o1 | > 30.2 µM
Clc1cccc(Cl)c1CN(CCCN1CCOCC1)Cc1cccnc1 | > 30.2 µM
Cn1cc(CN2CCCC(c3nccnc3-c3cccc(F)c3)C2)cn1 (centres undefined) | > 30.2 µM
O=C(NCc1ccccc1)C1CN(c2ccccn2)CCO1 (centres undefined) | > 30.2 µM
CCc1nccn1-c1nccnc1C1CCN(C(=O)COC)CC1 | > 30.2 µM
Cc1nc(Nc2nnc(C)s2)cc(C2CCCN2C)n1 (centres undefined) | > 30.2 µM
O=C(C1CC1)N1CCC(c2nc(O)c3c(n2)CCN(C2CCCC2)C3)C1 (centres undefined) | > 30.2 µM
CC(O)c1cn(Cc2ccc(Cl)cc2)nn1 (centres undefined) | > 30.2 µM
CCOc1ccc(C(=O)CC(SC2CCCCC2)C(=O)O)cc1 (centres undefined) | > 50.1 µM
COc1ccccc1CC(C)CC(=O)NC(C)C (centres undefined) | > 30.2 µM
CCCS(=O)(=O)NCC(O)c1c(Cl)cccc1Cl (centres undefined) | > 30.2 µM
CC(C)N(CC(C)(C)O)C(=O)NC1CC1 | > 30.2 µM
